Test results: ChEMBL document CHEMBL3885861, “Open TG-GATES”

Species on record: Rattus norvegicus
Assay: Open TG-GATES - Regimen: Single
Type: toxicity, organism-based, Sprague-Dawley
Parameters: regimen Single, gender Male, age 6 weeks
Settings: in vivo, po, 15 mg/kg, route gavage, dose level Middle; for APTT / Bas / Eos / Fbg / Hb / Ht / Lym / MCH / MCHC / MCV / Mono / Neu / PT / Plat / RBC / Ret / WBC: tissue Blood; for LIVER: tissue Liver; for A/G / ALP / ALT / AST / BUN / CRE / Ca / Cl / DBIL / GLC / IP / K / LDH / Na / PL / RALB / TBIL / TC / TG / TP / gamma-GTP: tissue Plasma

Compound: C=C(C)[C@H]1Cc2c(ccc3c2O[C@@H]2COc4cc(OC)c(OC)cc4[C@@H]2C3=O)O1 [ROTENONE]
- TERMINAL_BW (3 h): 196.9 g
- APTT (3 h): 16.9 s
- Bas (3 h): 0%
- Eos (3 h): 0.8%
- Fbg (3 h): 214 mg/dL
- Hb (3 h): 13.1 g/dL
- Ht (3 h): 40.1%
- Lym (3 h): 63.8%
- MCH (3 h): 20.7 pg
- MCHC (3 h): 32.6%
- MCV (3 h): 63.4 fL
- Mono (3 h): 13.6%
- Neu (3 h): 22%
- PT (3 h): 12.4 s
- Plat (3 h): 122.6 x10_4/uL
- RBC (3 h): 634 x10_4/ul
- Ret (3 h): 8.9%
- WBC (3 h): 89.2 x10_2/uL
- LIVER (3 h): 8.7 g
- A/G (3 h): 2.4
- ALP (3 h): 1502.2 IU/L
- ALT (3 h): 37.8 IU/L
- AST (3 h): 71.4 IU/L
- BUN (3 h): 14.2 mg/dL
- CRE (3 h): 0.4 mg/dL
- Ca (3 h): 10.9 mg/dL
- Cl (3 h): 104.2 meq/L
- DBIL (3 h): 0.01 mg/dL
- GLC (3 h): 191.6 mg/dL
- IP (3 h): 8.8 mg/dL
- K (3 h): 4 meq/L
- LDH (3 h): 106.6 IU/L
- Na (3 h): 141 meq/L
- PL (3 h): 126.8 mg/dL
- RALB (3 h): 3.9 g/dL
- TBIL (3 h): 0.038 mg/dL
- TC (3 h): 82 mg/dL
- TG (3 h): 37.4 mg/dL
- TP (3 h): 5.5 g/dL
- gamma-GTP (3 h): 0.8 IU/L
- TERMINAL_BW (6 h): 198.2 g
- APTT (6 h): 16.4 s
- Bas (6 h): 0%
- Eos (6 h): 0.8%
- Fbg (6 h): 209.6 mg/dL
- Hb (6 h): 13.2 g/dL
- Ht (6 h): 40.1%
- Lym (6 h): 75.8%
- MCH (6 h): 21 pg
- MCHC (6 h): 32.9%
- MCV (6 h): 63.9 fL
- Mono (6 h): 5.4%
- Neu (6 h): 18.2%
- PT (6 h): 12.4 s
- Plat (6 h): 127.4 x10_4/uL
- RBC (6 h): 628.4 x10_4/ul
- Ret (6 h): 8.2%
- WBC (6 h): 100.4 x10_2/uL
- LIVER (6 h): 8.7 g
- A/G (6 h): 2.3
- ALP (6 h): 1188.8 IU/L
- ALT (6 h): 33.6 IU/L
- AST (6 h): 68 IU/L
- BUN (6 h): 11.8 mg/dL
- CRE (6 h): 0.4 mg/dL
- Ca (6 h): 11 mg/dL
- Cl (6 h): 103.8 meq/L
- DBIL (6 h): 0.01 mg/dL
- GLC (6 h): 194 mg/dL
- IP (6 h): 9.7 mg/dL
- K (6 h): 4 meq/L
- LDH (6 h): 84.2 IU/L
- Na (6 h): 140.6 meq/L
- PL (6 h): 139.2 mg/dL
- RALB (6 h): 3.7 g/dL
- TBIL (6 h): 0.044 mg/dL
- TC (6 h): 79.8 mg/dL
- TG (6 h): 74.6 mg/dL
- TP (6 h): 5.4 g/dL
- gamma-GTP (6 h): 0.4 IU/L
- TERMINAL_BW (9 h): 198.7 g
- APTT (9 h): 16.4 s
- Bas (9 h): 0%
- Eos (9 h): 0.2%
- Fbg (9 h): 217 mg/dL
- Hb (9 h): 12.7 g/dL
- Ht (9 h): 38.7%
- Lym (9 h): 79.2%
- MCH (9 h): 21 pg
- MCHC (9 h): 32.9%
- MCV (9 h): 63.7 fL
- Mono (9 h): 6.8%
- Neu (9 h): 13.6%
- PT (9 h): 12.7 s
- Plat (9 h): 133.8 x10_4/uL
- RBC (9 h): 607.8 x10_4/ul
- Ret (9 h): 8.8%
- WBC (9 h): 91.4 x10_2/uL
- LIVER (9 h): 8.3 g
- A/G (9 h): 2.4
- ALP (9 h): 1265 IU/L
- ALT (9 h): 29.8 IU/L
- AST (9 h): 65.6 IU/L
- BUN (9 h): 10.4 mg/dL
- CRE (9 h): 0.4 mg/dL
- Ca (9 h): 11.4 mg/dL
- Cl (9 h): 104.2 meq/L
- DBIL (9 h): 0.01 mg/dL
- GLC (9 h): 186 mg/dL
- IP (9 h): 10 mg/dL
- K (9 h): 4.1 meq/L
- LDH (9 h): 103.8 IU/L
- Na (9 h): 139.8 meq/L
- PL (9 h): 132.2 mg/dL
- RALB (9 h): 3.7 g/dL
- TBIL (9 h): 0.044 mg/dL
- TC (9 h): 79.2 mg/dL
- TG (9 h): 40 mg/dL
- TP (9 h): 5.2 g/dL
- gamma-GTP (9 h): 1 IU/L
- TERMINAL_BW (24 h): 213.8 g
- APTT (24 h): 15.5 s
- Bas (24 h): 0%
- Eos (24 h): 0.8%
- Fbg (24 h): 216 mg/dL
- Hb (24 h): 12.8 g/dL
- Ht (24 h): 38.8%
- Lym (24 h): 78.6%
- MCH (24 h): 21.5 pg
- MCHC (24 h): 32.9%
- MCV (24 h): 65.3 fL
- Mono (24 h): 5.6%
- Neu (24 h): 15%
- PT (24 h): 11.8 s
- Plat (24 h): 113 x10_4/uL
- RBC (24 h): 595 x10_4/ul
- Ret (24 h): 8.1%
- WBC (24 h): 100 x10_2/uL
- LIVER (24 h): 11 g
- A/G (24 h): 2.6
- ALP (24 h): 1529.4 IU/L
- ALT (24 h): 36 IU/L
- AST (24 h): 67 IU/L
- BUN (24 h): 17.2 mg/dL
- CRE (24 h): 0.4 mg/dL
- Ca (24 h): 11.6 mg/dL
- Cl (24 h): 104.2 meq/L
- DBIL (24 h): 0.012 mg/dL
- GLC (24 h): 187 mg/dL
- IP (24 h): 7.4 mg/dL
- K (24 h): 4.4 meq/L
- LDH (24 h): 112.8 IU/L
- Na (24 h): 140.4 meq/L
- PL (24 h): 168.4 mg/dL
- RALB (24 h): 4 g/dL
- TBIL (24 h): 0.032 mg/dL
- TC (24 h): 88.8 mg/dL
- TG (24 h): 152 mg/dL
- TP (24 h): 5.6 g/dL
- gamma-GTP (24 h): 0.4 IU/L
